In US11857322B2, “Systems and methods for screening, diagnosing, and stratifying patients” (BlackThorn Therapeutics, Inc., priority 2018, dated 2024):

Assays:
[1] = tested on: patients with major depressive disorder; assay: Randomized, placebo controlled study of BTRX-246040 in patients with major depressive disorder; assay type: in vivo, human
Text: The disclosed systems and methods were used in a randomized, placebo controlled study to identify patients that would respond to BTRX-246040 (LY2940094)—a nociceptin receptor antagonist (“NOPA”). Details about the chemical structure and other properties, uses and indications for BTRX-246040 are disclosed in J M Witkin et al., “Therapeutic Approaches for NOP Receptor Antagonists in Neurobehavioral Disorders: Clinical Studies in Majority Depressive Disorder and Alcohol Use Disorder with BTRX-246040,” the content of which is incorporated herein by reference in its entirety. Additionally, BTRX-246040, it's uses, indications, treatments, and forms are disclosed in U.S. Pat. No. 8,232,289 filed Nov. 10, 2010, titled “Spiropiperidine Compounds as ORL-1 Receptor Antagonists” and U.S. Publication NO. 2012/0214784 filed Aug. 23, 2012 titled “Spiropiperidine Compounds as ORL-1 Receptor Antagonists,” both of which are incorporated by reference in their entirety herein.
During the study disclosed herein, BTRX-246040 was administered once daily in patients with major depressive disorder without anhedonia. The study included 73 patients with 38 randomized to BTRX-246040 and 35 randomized to the placebo. The BTRX group had 17 responders and the placebo had 15 responders. The study included the following methods: • 28 days screening period • Eight (8 (weeks of active treatment • Off-drug follow up after one to two weeks • 104 MDD patients randomized • 1:1 ratio stratified by SHAPS≤4 and SHAPS>4 • dosage: 40 mg first week, then 80 mg onwards when tolerated
The following are known clinical questionnaires that were utilized at the indicated time points above: • Montgomery-Asberg Depression Scale (MADRS) • Hamilton Anxiety Scale (HAMA) • Hospital Anxiety and Depression Scale (HADS-A/HADS-D) • Snaith-Hamilton Pleasure Scale (SHAPS) • Dimensional Anhedonia Rating Scale (DARS) Tasks
The primary outcome of the study utilized was the clinical scale MADRS total at week 8. […]

[2] = tested on: patients with mood and anxiety spectrum disorders; assay: FAST-MAS phase 2a study of CERC-501 in mood and anxiety spectrum disorders; assay type: in vivo, human
Text: In another example, during a phase 2a study known as FAST-MAS was run to evaluate the Kappa Opioid Receptor (“KOR”) as a target for the treatment of mood and anxiety spectrum disorders. Additionally, CERC-501, it's uses, indications, treatments, and forms are disclosed in PCT Publication No. WO2018170492, filed Mar. 16, 2018, titled “Kappa Opioid Receptor Antagonists and Products and Methods Related Thereto” which is incorporated by reference herin in its entirety. During the trial, CERC-501 was tested to see whether it engaged key neural circuitry related to the hedonic response.
The FAST-MAS trial included a 30-day screening period, followed by 8 weeks of active treatment, follow up 12 weeks of off-drug follow up after baseline. The study included […] (of 163 enrolled) to include 45 on CERC-501 and 44 to the Placebo. The patients received […] daily for the 8 weeks of active treatment.
Patients were eligible for enrollment if they met both: • (i) DSM-IV TR critiera for at least one of: • MDD • Bipolar I or II Depressed • GAD • Social Phobia • Panic Disorder • PTSD; and • (ii) SHAPS score of ≥20
Furthermore, the primary outcome measures were the following measures included in Table 7 below. These include the fMRI, the SHAPS scale, and the PRT task as disclosed herein

SMILES	number of responders ([1]; 38 patients randomized to BTRX-246040, once daily, 40 mg first week then 80 mg, 8 weeks, high responder = MADRS decrease by 50% from baseline)	group level treatment effects versus placebo ([1]; across all subjects, MADRS total at week 8, FIGS. 15A-15B)	change on the MADRS scale in patients identified by the classifiers as higher responders ([1]; after the 8-week study, subgroup chosen by classifiers from baseline data, FIGS. 16A-16B)	impact on patients identified using the Bayesian Decision Lists versus patients generally that received active treatment ([2]; subgroup identified by rule list, FIGS. 26A-26B)	outcome and treatment response ([2]; whole patient cohort, 8 weeks of active treatment)
Cc1nn(-c2ncccc2CO)cc1CN1CCC2(CC1)OCC(F)(F)c1cc(Cl)sc12 [BTRX-246040]	17	did as well as the placebo	greater than 5 point		
Cc1cc(C)cc([C@@H]2CCCN2Cc2ccc(Oc3ccc(C(N)=O)cc3F)cc2)c1 [CERC-501]				greater on the patients identified using the Bayesian Decision Lists than the impact generally on the patients that received the active treatment	illustrated a difference in the outcome and treatment response
